# Test results reported in US20210393538A1, “SILICA-BASED DRUG NANOCAPSULES” (priority 2018, published 2021).
# Counter-ions that a name gives are not always drawn.
# What was measured:
# RAW264.7 cells = assay: Macrophage viability (MTT, Live/Dead Calcein AM/EthD-III); assay type: cell-based; conditions: Mus musculus, RAW264.7 cells incubated 24 h
# Procedure: In vitro cellular loading studies. RAW264.7 (murine macrophages) and U87MG (human glioblastoma) were purchased from ATCC. RAW264.7 cells were cultured in RPMI1640 medium (Corning, USA) supplemented with 10% FBS (Corning, USA) and 1% penicillin-streptomycin (MediaTech, USA). During the nanoparticle loading stage, FBS-free RPMI1640 medium was used for culturing. U87MG cells were grown in DMEM medium (Corning, USA) supplemented with 10% FBS, 1% non-essential amino acids, and 1% penicillin-streptomycin. These two cell lines were incubated under 37° C. and 5% CO2 in a humid chamber. […] To determine the amount of Dox loaded into cells, DSN-laden cells were counted and then lysed by sonication in PBS (pH 5.0). The amounts of released Dox was measured by spectroscopic analysis. The Dox content on a per cell basis was calculated compared with macrophages without nanoparticle loading. […] To evaluate the impact of loaded DSNs on macrophages, the viability change was first assessed at different time points post nanoparticle loading by 3-(4,5-dimethythiazon-2-yl)-2,5-diphenyl tetrazolium bromide (MTT) assay or Live/Dead Cytotoxicity assay and the results were compared with normal macrophages. […]
# U87MG tumors = assay: In vivo therapy study; design: species or system nude mice
# Procedure: Small animal models. For imaging and therapy studies, a U87MG subcutaneous mouse model was used. The animal model was established by subcutaneously inoculating 1 million U87MG cells onto the right hind leg or the right flank (for PET imaging only) of a 5-6 week old athymic female nude mice (Harlan). For toxicity studies, normal 5-6 week old balb/c mice (Envigo laboratories). All the animal studied were performed according to a protocol approved by the Institutional Animal Care and Use Committee (IACUC) of University of Georgia.
# In vivo therapy study. Treatments started when tumor size reached 100-150 mm^3. 25 mice were randomly divided into 5 groups and were i.v. injected with PBS, free Dox, DSN-52 in PBS, MF cells, and DSN-MF cells on Day 0. Dox, DSN-52, and DSN-MF were injected at 3 mg Dox kg^−1, and 4 million cells were injected into the mice in MF and DSN-MF groups. The body weight and tumor volume of each mouse were measured every other day for 2 weeks. The tumor volume was calculated by the following equation: tumor volume=0.5×length×(width)^2, where length≥width. Mice were euthanized once the tumor volume was above 1,700 mm^3.
# Toxicity studies = assay type: in vivo, balb/c mice
# Procedure: Small animal models. For imaging and therapy studies, a U87MG subcutaneous mouse model was used. […] For toxicity studies, normal 5-6 week old balb/c mice (Envigo laboratories). All the animal studied were performed according to a protocol approved by the Institutional Animal Care and Use Committee (IACUC) of University of Georgia. Toxicity studies. Fifteen normal balb/c mice were randomly divided into 5 groups and received regimens specified in the in vivo therapy study section. The body weight and anal temperature of each mouse were measured daily at the same time (starting from 6 days before injection through Day 6). On Day 7, all mice were euthanized and the whole blood was collected. Part of the blood samples were used for a complete blood count (CBC) test. […] All tests were conducted by following the vendors' protocols. CRP and TNF-α kits were purchased from RayBiotech, ALT (MAK055) and AST (MAK052) kits from Sigma-Aldrich, and BUN from Arbor Assays. Each assay was repeated at least twice.
structure (smiles),measurement,setting,value
"COc1cccc2c1C(=O)c1c(O)c3c(c(O)c1C2=O)C[C@@](O)(C(=O)CO)C[C@@H]3O[C@H]1C[C@H](N)[C@H](O)[C@H](C)O1 [Dox, doxorubicin hydrochloride salt]",IC50,RAW264.7 cells,1.5 µg/mL
same,tumor growth inhibition (TGI) rate,"U87MG tumors; Day 14, relative to the PBS group",24.84%
same,median survival,U87MG tumors; one i.v. dose on Day 0,16 days
same,average tumor volume on Day 14,"U87MG tumors; one i.v. dose on Day 0, 3 mg Dox kg^−1 and/or ˜4×10^6 cells per mouse",1328.6 mm^3
same,Bands,"Toxicity studies; CBC, Day 7",12%
same,HCT,"Toxicity studies; CBC, Day 7",48.9%
same,HGB,"Toxicity studies; CBC, Day 7",44.0 g/dL
same,Lymphs,"Toxicity studies; CBC, Day 7",82%
same,MCH,"Toxicity studies; CBC, Day 7",31.6 pg
same,MCHC,"Toxicity studies; CBC, Day 7",62 g/dL
same,MCV,"Toxicity studies; CBC, Day 7",15.4 fL
same,Monos,"Toxicity studies; CBC, Day 7",6%
same,RBC,"Toxicity studies; CBC, Day 7",1.39e+07 µL⁻¹
same,Segs,"Toxicity studies; CBC, Day 7",0%
same,WBC,"Toxicity studies; CBC, Day 7",13490 µL⁻¹
same,"complete blood count (CBC) analysis, overall",Toxicity studies; Day 7,abnormalities
same,body weight change,"Toxicity studies; normal balb/c mice, Day 2, hydrochloride salt",small degree of body weight loss
